In PubChem BioAssay (NCI):
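A five-concentration, 48-hour dose response in 96-well plates underlies each endpoint, interpolated linearly between surrounding concentrations. GI50 marks 50% less growth. TGI denotes the concentration required for complete inhibition of growth.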

Columns and labels:
Assay in all cases: DTP human tumour cell line panel, 48 h
COLO 205 colon = system: COLO 205 colon
T-47D breast = system: T-47D breast
HS 578T breast = system: HS 578T breast
HOP-92 NSCLC = system: HOP-92 NSCLC
786-0 renal = system: 786-0 renal
A498 renal = system: A498 renal
RPMI-8226 leukemia = system: RPMI-8226 leukemia
KM12 colon = system: KM12 colon
SNB-19 CNS = system: SNB-19 CNS
MDA-MB-435 = system: MDA-MB-435
NCI-H23 lung = system: NCI-H23 lung
U251 CNS = system: U251 CNS
HCC-2998 colon = system: HCC-2998 colon
MOLT-4 leukemia = system: MOLT-4 leukemia
SK-MEL-5 melanoma = system: SK-MEL-5 melanoma
NCI-H460 lung = system: NCI-H460 lung
SF-539 CNS = system: SF-539 CNS
NCI-H226 lung = system: NCI-H226 lung
BT-549 breast = system: BT-549 breast
OVCAR-5 ovarian = system: OVCAR-5 ovarian
SN12C renal = system: SN12C renal
OVCAR-3 ovarian = system: OVCAR-3 ovarian
CCRF-CEM leukemia = system: CCRF-CEM leukemia
MCF7 breast = system: MCF7 breast
RXF 393 renal = system: RXF 393 renal
IGROV1 ovarian = system: IGROV1 ovarian
EKVX NSCLC = system: EKVX NSCLC
OVCAR-4 ovarian = system: OVCAR-4 ovarian
SF-268 CNS = system: SF-268 CNS
HL-60(TB) leukemia = system: HL-60(TB) leukemia
OVCAR-8 ovarian = system: OVCAR-8 ovarian
SF-295 CNS = system: SF-295 CNS
TK-10 renal = system: TK-10 renal
K-562 leukemia = system: K-562 leukemia
UACC-62 melanoma = system: UACC-62 melanoma
MALME-3M melanoma = system: MALME-3M melanoma
ACHN renal = system: ACHN renal
UACC-257 melanoma = system: UACC-257 melanoma
PC-3 prostate = system: PC-3 prostate
M14 melanoma = system: M14 melanoma
SK-MEL-2 melanoma = system: SK-MEL-2 melanoma
UO-31 renal = system: UO-31 renal
DU-145 prostate = system: DU-145 prostate
MDA-MB-231 breast = system: MDA-MB-231 breast
SW-620 colon = system: SW-620 colon
A549 NSCLC = system: A549 NSCLC
HOP-62 NSCLC = system: HOP-62 NSCLC
HCT-15 colon = system: HCT-15 colon
HT29 colon = system: HT29 colon
NCI-H522 lung = system: NCI-H522 lung
SNB-75 CNS = system: SNB-75 CNS
HCT-116 colon = system: HCT-116 colon
LOX IMVI melanoma = system: LOX IMVI melanoma
SK-MEL-28 melanoma = system: SK-MEL-28 melanoma
SR leukemia = system: SR leukemia
SK-OV-3 ovarian = system: SK-OV-3 ovarian

For `CC(=O)c1cc2c(N)c(C(=O)Nc3cccc4ccccc34)sc2nc1C`, the GI50 (COLO 205 colon) was 1.12 µM, the TGI (COLO 205 colon) was 3.2 µM and the GI50 (T-47D breast) was 1.6 µM. For the same compound, the TGI (T-47D breast) was > 50 µM, the GI50 (HS 578T breast) was 1.82 µM and the TGI (HS 578T breast) was > 50 µM. The GI50 (HOP-92 NSCLC) was 6.78 µM, the TGI (HOP-92 NSCLC) was > 50 µM and the GI50 (786-0 renal) was 1.87 µM. For the same compound, the TGI (786-0 renal) was > 50 µM, the GI50 (A498 renal) was 0.34 µM and the TGI (A498 renal) was > 50 µM. The GI50 (RPMI-8226 leukemia) was 1.76 µM, the TGI (RPMI-8226 leukemia) was > 50 µM and the GI50 (KM12 colon) was 1.89 µM. For the same compound, the TGI (KM12 colon) was > 50 µM, the GI50 (SNB-19 CNS) was 1.78 µM and the TGI (SNB-19 CNS) was > 50 µM. It also gave a GI50 (MDA-MB-435) of 0.178 µM, a TGI (MDA-MB-435) of 1.08 µM and a GI50 (NCI-H23 lung) of 2.14 µM. The TGI (NCI-H23 lung) was > 50 µM, the GI50 (U251 CNS) was 1.92 µM and the TGI (U251 CNS) was > 50 µM. The GI50 (HCC-2998 colon) was 2.29 µM, the TGI (HCC-2998 colon) was > 50 µM and the GI50 (MOLT-4 leukemia) was 2.19 µM. The TGI (MOLT-4 leukemia) was > 50 µM, the GI50 (SK-MEL-5 melanoma) was 1.09 µM and the TGI (SK-MEL-5 melanoma) was > 50 µM. For the same compound, the GI50 (NCI-H460 lung) was 1.61 µM, the TGI (NCI-H460 lung) was > 50 µM and the GI50 (SF-539 CNS) was 1.16 µM. For the same compound, the TGI (SF-539 CNS) was 3.99 µM, the GI50 (NCI-H226 lung) was 21.6 µM and the TGI (NCI-H226 lung) was > 50 µM. The GI50 (BT-549 breast) was 4.03 µM, the TGI (BT-549 breast) was > 50 µM and the GI50 (OVCAR-5 ovarian) was 2.6 µM. The TGI (OVCAR-5 ovarian) was > 50 µM, the GI50 (SN12C renal) was 3.44 µM and the TGI (SN12C renal) was > 50 µM. It also gave a GI50 (OVCAR-3 ovarian) of 1.67 µM, a TGI (OVCAR-3 ovarian) of 11.4 µM and a GI50 (CCRF-CEM leukemia) of 2.02 µM. For the same compound, the TGI (CCRF-CEM leukemia) was > 50 µM, the GI50 (MCF7 breast) was 1.42 µM and the TGI (MCF7 breast) was > 50 µM. The GI50 (RXF 393 renal) was 0.891 µM, the TGI (RXF 393 renal) was 3.46 µM and the GI50 (IGROV1 ovarian) was 2.92 µM. For the same compound, the TGI (IGROV1 ovarian) was > 50 µM, the GI50 (EKVX NSCLC) was 2.9 µM and the TGI (EKVX NSCLC) was > 50 µM. The GI50 (OVCAR-4 ovarian) was 6.06 µM, the TGI (OVCAR-4 ovarian) was > 50 µM and the GI50 (SF-268 CNS) was 4.34 µM. For the same compound, the TGI (SF-268 CNS) was > 50 µM, the GI50 (HL-60(TB) leukemia) was 1.36 µM and the TGI (HL-60(TB) leukemia) was 4.35 µM. For the same compound, the GI50 (OVCAR-8 ovarian) was 2.14 µM, the TGI (OVCAR-8 ovarian) was > 50 µM and the GI50 (SF-295 CNS) was 0.922 µM. For the same compound, the TGI (SF-295 CNS) was 3.59 µM, the GI50 (TK-10 renal) was 3.77 µM and the TGI (TK-10 renal) was > 50 µM. The GI50 (K-562 leukemia) was 1.23 µM, the TGI (K-562 leukemia) was > 50 µM and the GI50 (UACC-62 melanoma) was 1.12 µM. The TGI (UACC-62 melanoma) was > 50 µM, the GI50 (MALME-3M melanoma) was 6.92 µM and the TGI (MALME-3M melanoma) was > 50 µM. The GI50 (ACHN renal) was 3.61 µM, the TGI (ACHN renal) was > 50 µM and the GI50 (UACC-257 melanoma) was 18 µM. For the same compound, the TGI (UACC-257 melanoma) was > 50 µM, the GI50 (PC-3 prostate) was 1.75 µM and the TGI (PC-3 prostate) was > 50 µM. For the same compound, the GI50 (M14 melanoma) was 0.745 µM, the TGI (M14 melanoma) was 3.21 µM and the GI50 (SK-MEL-2 melanoma) was 4.22 µM. For the same compound, the TGI (SK-MEL-2 melanoma) was > 50 µM, the GI50 (UO-31 renal) was 4.27 µM and the TGI (UO-31 renal) was > 50 µM. For the same compound, the GI50 (DU-145 prostate) was 1.71 µM, the TGI (DU-145 prostate) was 36.1 µM and the GI50 (MDA-MB-231 breast) was 3.41 µM. The TGI (MDA-MB-231 breast) was > 50 µM, the GI50 (SW-620 colon) was 1.55 µM and the TGI (SW-620 colon) was > 50 µM. The GI50 (A549 NSCLC) was 0.977 µM, the TGI (A549 NSCLC) was > 50 µM and the GI50 (HOP-62 NSCLC) was 1.67 µM. For the same compound, the TGI (HOP-62 NSCLC) was 27.4 µM, the GI50 (HCT-15 colon) was 1.71 µM and the TGI (HCT-15 colon) was > 50 µM. The GI50 (HT29 colon) was 1.74 µM, the TGI (HT29 colon) was > 50 µM and the GI50 (NCI-H522 lung) was 1.2 µM. For the same compound, the TGI (NCI-H522 lung) was > 50 µM, the GI50 (SNB-75 CNS) was 1.98 µM and the TGI (SNB-75 CNS) was 35.5 µM. For the same compound, the GI50 (HCT-116 colon) was 2.23 µM, the TGI (HCT-116 colon) was > 50 µM and the GI50 (LOX IMVI melanoma) was 2.58 µM. The TGI (LOX IMVI melanoma) was > 50 µM, the GI50 (SK-MEL-28 melanoma) was 4.07 µM and the TGI (SK-MEL-28 melanoma) was > 50 µM. For the same compound, the GI50 (SR leukemia) was 1.21 µM, the TGI (SR leukemia) was > 50 µM and the GI50 (SK-OV-3 ovarian) was 0.512 µM. For the same compound, the TGI (SK-OV-3 ovarian) was > 50 µM.
